Assay results taken from the NIST ThermoML archive (doi:10.1016/j.tca.2013.10.028).
± gives the expanded uncertainty stated by the source.

Experiments:
[1] = an = ratio of the nth substance listed; details: for surface tension liquid-gas: Ring tensiometer; for electrical conductivity / viscosity / mass density: 101 kPa, Liquid; for electrical conductivity: Alternating current cell with electrodes; for viscosity: Capillary tube (Ostwald / Ubbelohde) method; for mass density: Vibrating tube method
[2] = refractive index (Na D-line) (dimensionless); an = ratio of the nth substance listed; details: 101 kPa, Liquid, Standard Abbe refractometry

OCC(O)CO [glycerol] + O=C([O-])[O-].[K+].[K+]
Details	electrical conductivity, [1] [S/m]	mass density, [1] [kg/m3]	refractive index, [2]	surface tension liquid-gas, [1] [mN/m]	viscosity, [1] [mPa·s]
293.15 K, a1 = 4	0.0008 ± 0.0002	1477.9 ± 2	1.4922 ± 0.0021	50.6 ± 2.1	28104 ± 3900
293.15 K, a1 = 5	0.0034 ± 0.0007	1447.2 ± 1.9	1.491 ± 0.0021	64.4 ± 2.2	18018 ± 2400
293.15 K, a1 = 6	0.0052 ± 0.001	1423.6 ± 1.8	1.4897 ± 0.0021	69.5 ± 2.3	5500 ± 690
303.15 K, a1 = 4	0.003 ± 0.0006	1472 ± 2	1.4906 ± 0.0021	46.1 ± 2.1	10100 ± 1300
303.15 K, a1 = 5	0.0082 ± 0.0016	1441.4 ± 1.9	1.4894 ± 0.0021	59.1 ± 2.2	8899 ± 1200
303.15 K, a1 = 6	0.0112 ± 0.0022	1417.8 ± 1.8	1.4882 ± 0.0021	66.8 ± 2.2	3500 ± 420
313.15 K, a1 = 4	0.0069 ± 0.0014	1466.1 ± 1.9	1.4888 ± 0.0021	45.2 ± 2.1	3330 ± 410
313.15 K, a1 = 5	0.0154 ± 0.0031	1435.5 ± 1.9	1.488 ± 0.0021	56.7 ± 2.2	3440 ± 420
313.15 K, a1 = 6	0.0247 ± 0.0049	1411.9 ± 1.8	1.4866 ± 0.0021	65.6 ± 2.2	1710 ± 200
323.15 K, a1 = 4	0.0162 ± 0.0032	1460.2 ± 1.9	1.4862 ± 0.0021	44.4 ± 2.1	1400 ± 160
323.15 K, a1 = 5	0.0371 ± 0.0074	1429.6 ± 1.8	1.4853 ± 0.0021	55.3 ± 2.2	1418 ± 160
323.15 K, a1 = 6	0.0393 ± 0.0079	1405.9 ± 1.8	1.4845 ± 0.0021	64 ± 2.2	767 ± 85
333.15 K, a1 = 4	0.0313 ± 0.0063	1454.1 ± 1.9	1.4857 ± 0.0021	43.4 ± 2.1	663 ± 72
333.15 K, a1 = 5	0.076 ± 0.015	1423.4 ± 1.8	1.4839 ± 0.0021	54.7 ± 2.2	646 ± 71
333.15 K, a1 = 6	0.121 ± 0.024	1399.8 ± 1.8	1.4827 ± 0.0021	63 ± 2.2	378 ± 40
343.15 K, a1 = 4	0.0583 ± 0.012	1448.1 ± 1.9	1.4846 ± 0.0021	42.6 ± 2.1	323 ± 34
343.15 K, a1 = 5	0.139 ± 0.028	1417.5 ± 1.8	1.4818 ± 0.0021	53.7 ± 2.2	323 ± 34
343.15 K, a1 = 6	0.163 ± 0.033	1393.8 ± 1.8	1.4808 ± 0.0021	62.2 ± 2.2	203 ± 21
353.15 K, a1 = 4	0.204 ± 0.041	1442.2 ± 1.9	1.4839 ± 0.0021	41.6 ± 2.1	200 ± 20
353.15 K, a1 = 5	0.313 ± 0.063	1411.4 ± 1.8	1.4783 ± 0.0021	51.3 ± 2.2	178 ± 19
353.15 K, a1 = 6	0.341 ± 0.068	1387.7 ± 1.7	1.4789 ± 0.0021	61.5 ± 2.2	115 ± 12

O=C([O-])[O-].[K+].[K+] [potassium carbonate] + OCCO
Details	electrical conductivity, [1] [S/m]	mass density, [1] [kg/m3]	refractive index, [2]	surface tension liquid-gas, [1] [mN/m]	viscosity, [1] [mPa·s]
293.15 K, a2 = 6	0.22 ± 0.022	1338.8 ± 1.6	1.4598 ± 0.0021	28.4 ± 0.5	227 ± 24
293.15 K, a2 = 7	0.238 ± 0.024	1314 ± 1.5	1.4565 ± 0.0021	28.3 ± 0.5	149 ± 15
293.15 K, a2 = 8	0.231 ± 0.023	1295.5 ± 1.5	1.457 ± 0.0021	27.8 ± 0.49	117 ± 12
303.15 K, a2 = 6	0.34 ± 0.034	1332.1 ± 1.6	1.4576 ± 0.0021	27.8 ± 0.49	120 ± 12
303.15 K, a2 = 7	0.425 ± 0.043	1307.3 ± 1.5	1.4548 ± 0.0021	27.7 ± 0.49	81 ± 8
303.15 K, a2 = 8	0.365 ± 0.036	1288.8 ± 1.5	1.4556 ± 0.0021	27.3 ± 0.48	66 ± 7
313.15 K, a2 = 6	0.51 ± 0.051	1325.3 ± 1.6	1.455 ± 0.0021	27.3 ± 0.48	69 ± 7
313.15 K, a2 = 7	0.537 ± 0.054	1300.6 ± 1.5	1.4525 ± 0.0021	27.2 ± 0.48	49 ± 5
313.15 K, a2 = 8	0.531 ± 0.053	1282.1 ± 1.5	1.4536 ± 0.0021	26.7 ± 0.47	40 ± 4
323.15 K, a2 = 6	0.78 ± 0.078	1318.5 ± 1.6	1.4533 ± 0.0021	26.8 ± 0.47	42 ± 4
323.15 K, a2 = 7	0.801 ± 0.08	1293.8 ± 1.5	1.4507 ± 0.0021	26.7 ± 0.47	31 ± 3
323.15 K, a2 = 8	0.73 ± 0.073	1275.3 ± 1.5	1.4513 ± 0.0021	26.1 ± 0.46	26 ± 3
333.15 K, a2 = 6	1.17 ± 0.12	1311.7 ± 1.5	1.4519 ± 0.0021	26.1 ± 0.46	28 ± 3
333.15 K, a2 = 7	1.18 ± 0.12	1287 ± 1.5	1.449 ± 0.0021	26 ± 0.46	21 ± 2
333.15 K, a2 = 8	1.04 ± 0.1	1268.5 ± 1.4	1.4496 ± 0.0021	25.5 ± 0.45	18 ± 2
343.15 K, a2 = 6	1.51 ± 0.15	1304.9 ± 1.5	1.4485 ± 0.0021	25.5 ± 0.45	20 ± 2
343.15 K, a2 = 7	1.53 ± 0.15	1280.1 ± 1.5	1.4459 ± 0.0021	25.3 ± 0.45	15 ± 2
343.15 K, a2 = 8	1.4 ± 0.14	1261.7 ± 1.4	1.4469 ± 0.0021	24.8 ± 0.44	13 ± 1
